Molecules are shown by their SMILES.

Sequence of GST tagged IRAK-4 (Q9NWZ3 whole entry): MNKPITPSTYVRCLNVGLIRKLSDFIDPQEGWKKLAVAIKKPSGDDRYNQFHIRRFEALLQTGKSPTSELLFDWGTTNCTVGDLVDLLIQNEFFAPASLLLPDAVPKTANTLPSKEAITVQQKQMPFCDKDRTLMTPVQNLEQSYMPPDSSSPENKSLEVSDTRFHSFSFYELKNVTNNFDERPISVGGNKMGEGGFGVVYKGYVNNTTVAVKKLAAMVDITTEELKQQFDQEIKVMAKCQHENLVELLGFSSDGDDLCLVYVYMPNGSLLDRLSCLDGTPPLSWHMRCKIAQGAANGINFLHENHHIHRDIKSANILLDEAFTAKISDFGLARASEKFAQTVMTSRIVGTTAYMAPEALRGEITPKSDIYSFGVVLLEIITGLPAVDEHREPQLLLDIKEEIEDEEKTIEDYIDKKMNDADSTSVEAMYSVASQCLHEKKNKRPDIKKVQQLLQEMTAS

For the first assay, the target named is GST tagged IRAK-4 (Homo sapiens (Human), UniProt Q9NWZ3). Put plainly: IRAK-4 Kinase Assay (IMAP fluorescence polarization). The conditions noted are these: 100 μM ATP, 30 minutes at 25° C. The format is biochemical. On the procedure:
The kinase activity of IRAK-4 is determined by its ability to catalyze the phosphorylation of a fluorescent polypeptide substrate. The extent of phosphorylation is measured using the IMAP technology (Molecular Devices) where the phosphorylated fluorescent substrate binds to the large M(III)-based nanoparticles which reduces the rotational speed of the substrate and thus increases its fluorescent polarization (FP).
20 μl reaction mixture contains 10 mM TriHCl, pH 7.2, 0.5 nM GST tagged IRAK-4 (SignalChem), 100 nM fluorescent peptide substrate (RP7030, Molecular Devices), 100 μM ATP, 1 mM DTT, 1 mM MgCl2, and 0.01% Tween 20. The reaction is initiated by the addition of ATP. After incubation for 30 minutes at 25° C., 60 μl of Progressive IMAP Reagent (Molecular Devices) is added to stop the reaction. Change in RP7030's FP is determined by a FP reader (Analyst HT, LH, BioSystems).
For orientation: Fluorescence polarisation rises when a labelled molecule tumbles more slowly, as on binding a larger partner.
As usually defined, the IC50 is the point on the concentration scale where inhibition reaches its midpoint. A lower IC50 goes with greater potency in that assay. In the case of `Cc1ccc(-n2nc(C3CCC(=O)CC3)cc2NC(=O)c2cnn3cccnc23)cc1` [Example 1, N-(3-(4-oxocyclohexyl)-1-p-tolyl-1H-pyrazol-5-yl)pyrazolo[1,5-a]pyrimidine-3-carboxamide], the IC50 was less than 0.1 µM.

Consider `Cc1ccc(-n2nc(C3CCNCC3)cc2NC(=O)c2cnn3cccnc23)cc1` [Example 7, N-(3-(piperidin-4-yl)-1-(p-tolyl)-1H-pyrazol-5-yl)pyrazolo[1,5-a]pyrimidine-3-carboxamide], for which the IC50 was less than 0.1 µM. On the same count and under the same terms, as for `COc1ccc(-n2nc(C3CCN(S(C)(=O)=O)CC3)cc2NC(=O)c2cnn3cccnc23)cc1` [Example 16, N-(1-(4-methoxyphenyl)-3-(1-(methylsulfonyl)piperidin-4-yl)-1H-pyrazol-5-yl)pyrazolo[1,5-a]pyrimidine-3-carboxamide], the figure is less than 0.1 µM; as for `Cc1ccc(-n2nc(C3CCN(S(C)(=O)=O)CC3)cc2NC(=O)c2cnn3cccnc23)cc1` [Example 18, N-(3-(1-(methylsulfonyl)piperidin-4-yl)-1-(p-tolyl)-1H-pyrazol-5-yl)pyrazolo[1,5-a]pyrimidine-3-carboxamide], less than 0.1 µM. On the same count and under the same terms, as for `COc1ccc(-n2nc(C3CCN(S(=O)(=O)C(C)C)CC3)cc2NC(=O)c2cnn3cccnc23)cc1` [Example 23, N-(3-(1-(isopropylsulfonyl)piperidin-4-yl)-1-(4-methoxyphenyl)-1H-pyrazol-5-yl)pyrazolo[1,5-a]pyrimidine-3-carboxamide], the figure is less than 0.1 µM; as for `COc1ccc(-n2nc(C3CCN(S(=O)(=O)C4CC4)CC3)cc2NC(=O)c2cnn3cccnc23)cc1` [Example 24, N-(3-(1-(cyclopropylsulfonyl)piperidin-4-yl)-1-(4-methoxyphenyl)-1H-pyrazol-5-yl)pyrazolo[1,5-a]pyrimidine-3-carboxamide], less than 0.1 µM.

The assay is the same for the next values; noted with them: 100 μM ATP, 30 minutes at 25° C.; μM.
Turning to `Cc1ccc(-n2nc(C3CCC(=NO)CC3)cc2NC(=O)c2cnn3cccnc23)cc1` (stereo not shown) [Example 2, N-(3-(4-(hydroxyimino)cyclohexyl)-1-(p-tolyl)-1H-pyrazol-5-yl)pyrazolo[1,5-a]pyrimidine-3-carboxamide], the IC50 was less than 1 µM. Same read-out and setting: under `CON=C1CCC(c2cc(NC(=O)c3cnn4cccnc34)n(-c3ccc(C)cc3)n2)CC1` (stereo not shown) [Example 3, N-(3-(4-(methoxyimino)cyclohexyl)-1-(p-tolyl)-1H-pyrazol-5-yl)pyrazolo[1,5-a]pyrimidine-3-carboxamide] stands less than 1 µM; under `Cc1ccc(-n2nc(C3CCNC(=O)CC3)cc2NC(=O)c2cnn3cccnc23)cc1` (stereo not shown) [Example 4, N-(3-(7-oxoazepan-4-yl)-1-(p-tolyl)-1H-pyrazol-5-yl)pyrazolo[1,5-a]pyrimidine-3-carboxamide], less than 1 µM; under `Cc1ccc(-n2nc(C3CCC(N(C)C)CC3)cc2NC(=O)c2cnn3cccnc23)cc1` (stereo not shown) [Example 5, N-(3-(4-(dimethylamino)cyclohexyl)-1-(p-tolyl)-1,4-pyrazol-5-yl)pyrazolo[1,5-a]pyrimidine-3-carboxamide], less than 1 µM. On the same count and under the same terms, as for `Cc1ccc(-n2nc(C3CCC(O)CC3)cc2NC(=O)c2cnn3cccnc23)cc1` (stereo not shown) [Example 6, N-(3-(4-hydroxycyclohexyl)-1-(p-tolyl)-1H-pyrazol-5-yl)pyrazolo[1,5-a]pyrimidine-3-carboxamide], the figure is less than 1 µM.

Take `COc1ccc(-n2nc(C3CCNCC3)cc2NC(=O)c2cnn3cccnc23)cc1` [Example 8, N-(1-(4-methoxyphenyl)-3-(piperidin-4-yl)-1H-pyrazol-5-yl)pyrazolo[1,5-a]pyrimidine-3-carboxamide]: the IC50 is less than 1 µM.

Compound `O=C(Nc1cc(C2CCNCC2)nn1-c1ccc(Cl)cc1)c1cnn2cccnc12` [Example 9, N-(1-(4-chlorophenyl)-3-(piperidin-4-yl)-1H-pyrazol-5-yl)pyrazolo[1,5-a]pyrimidine-3-carboxamide] displayed a concentration for half-maximal inhibition (IC50) of less than 1 µM. `O=C(Nc1cc(C2CCNCC2)nn1-c1ccc(F)cc1)c1cnn2cccnc12` [Example 10, N-(1-(4-fluorophenyl)-3-(piperidin-4-yl)-1H-pyrazol-5-yl)pyrazolo[1,5-a]pyrimidine-3-carboxamide] showed a 50% inhibitory concentration (IC50) of less than 1 µM. Still for that read-out and setting: as for `O=C(Nc1cc(C2CCNCC2)nn1-c1ccc(C(F)(F)F)cc1)c1cnn2cccnc12` [Example 11, N-(3-(piperidin-4-yl)-1-(4-(trifluoromethyl)phenyl)-1H-pyrazol-5-yl)pyrazolo[1,5-a]pyrimidine-3-carboxamide], the figure is less than 1 µM; as for `N#Cc1ccc(-n2nc(C3CCNCC3)cc2NC(=O)c2cnn3cccnc23)cc1` [Example 12, N-(1-(4-cyanophenyl)-3-(piperidin-4-yl)-1H-pyrazol-5-yl)pyrazolo[1,5-a]pyrimidine-3-carboxamide], more than 1 µM; as for `O=C(Nc1cc(C2CCNCC2)nn1-c1ccc(OC(F)(F)F)cc1)c1cnn2cccnc12` [Example 13, N-(3-(piperidin-4-yl)-1-(4-(trifluoromethoxy)phenyl)-1H-pyrazol-5-yl)pyrazolo[1,5-a]pyrimidine-3-carboxamide], less than 1 µM. Same read-out and setting: under `Cc1ccccc1-n1nc(C2CCNCC2)cc1NC(=O)c1cnn2cccnc12` [Example 14, N-(3-(piperidin-4-yl)-1-(o-tolyl)-1H-pyrazol-5-yl)pyrazolo[1,5-a]pyrimidine-3-carboxamide] stands more than 1 µM; under `Cc1cccc(-n2nc(C3CCNCC3)cc2NC(=O)c2cnn3cccnc23)c1` [Example 15, N-(3-(piperidin-4-yl)-1-(m-tolyl)-1H-pyrazol-5-yl)pyrazolo[1,5-a]pyrimidine-3-carboxamide], less than 1 µM; under `Cc1cccc(-n2nc(C3CCN(S(C)(=O)=O)CC3)cc2NC(=O)c2cnn3cccnc23)c1` [Example 17, N-(3-(1-(methylsulfonyl)piperidin-4-yl)-1-(m-tolyl)-1H-pyrazol-5-yl)pyrazolo[1,5-a]pyrimidine-3-carboxamide], less than 1 µM. The same measure, in the same setting: as for `Cc1cccc(-n2nc(C3CCN(S(=O)(=O)C4CC4)CC3)cc2NC(=O)c2cnn3cccnc23)c1` [Example 21, N-(3-(1-(cyclopropylsulfonyl)piperidin-4-yl)-1-(m-tolyl)-1H-pyrazol-5-yl)pyrazolo[1,5-a]pyrimidine-3-carboxamide], the figure is less than 1 µM. For the compound `O=C(Nc1cc(C2CCN(S(=O)(=O)C3CC3)CC2)nn1-c1ccc(F)cc1)c1cnn2cccnc12` [Example 22, N-(3-(1-(cyclopropylsulfonyl)piperidin-4-yl)-1-(4-fluorophenyl)-1H-pyrazol-5-yl)pyrazolo[1,5-a]pyrimidine-3-carboxamide], the IC50 was less than 1 µM. Still for that read-out and setting: as for `Cc1ccc(-n2nc(C3CCN(S(=O)(=O)C4CCCC4)CC3)cc2NC(=O)c2cnn3cccnc23)cc1` [Example 25, N-(3-(1-(cyclopentylsulfonyl)piperidin-4-yl)-1-(p-tolyl)-1H-pyrazol-5-yl)pyrazolo[1,5-a]pyrimidine-3-carboxamide], the figure is less than 1 µM; as for `Cc1ccc(-n2nc(C3CCN(S(=O)(=O)C4CC4)CC3)cc2NC(=O)c2cnn3cccnc23)cc1` [Example 26, N-(3-(1-(cyclopropylsulfonyl)piperidin-4-yl)-1-(p-tolyl)-1H-pyrazol-5-yl)pyrazolo[1,5-a]pyrimidine-3-carboxamide], less than 1 µM. In turn, `O=C(Nc1cc(C2CCN(S(=O)(=O)C3CC3)CC2)nn1-c1ccc(OC(F)(F)F)cc1)c1cnn2cccnc12` [Example 27, N-(3-(1-(cyclopropylsulfonyl)piperidin-4-yl)-1-(4-(trifluoromethoxy)phenyl)-1H-pyrazol-5-yl)pyrazolo[1,5-a]pyrimidine-3-carboxamide] displayed an IC50 of more than 1 µM. As for `CS(=O)(=O)N1CCC(c2cc(NC(=O)c3cnn4cccnc34)n(-c3ccc(F)cc3F)n2)CC1` [Example 28], the IC50 is less than 1 µM. For `CS(=O)(=O)N1CCC(c2cc(NC(=O)c3cnn4cccnc34)n(-c3ccc(Cl)cc3F)n2)CC1` [Example 29, N-(1-(4-chloro-2-fluorophenyl)-3-(1-(methylsulfonyl)piperidin-4-yl)-1H-pyrazol-5-yl)pyrazolo[1,5-a]pyrimidine-3-carboxamide], the concentration for half-maximal inhibition (IC50) is less than 1 µM. On the same count and under the same terms, as for `COc1ccc(-n2nc(C3CCN(S(=O)(=O)C(F)(F)F)CC3)cc2NC(=O)c2cnn3cccnc23)cc1` [Example 30, N-(1-(4-methoxyphenyl)-3-(1-((trifluoromethyl)sulfonyl)piperidin-4-yl)-1H-pyrazol-5-yl)pyrazolo[1,5-a]pyrimidine-3-carboxamide], the figure is more than 1 µM. For `CC(=O)N1CCC(c2cc(NC(=O)c3cnn4cccnc34)n(-c3ccc(C)cc3)n2)CC1` [Example 31, N-(3-(1-acetylpiperidin-4-yl)-1-(p-tolyl)-1H-pyrazol-5-yl)pyrazolo[1,5-a]pyrimidine-3-carboxamide], the IC50 was less than 1 µM. Still for that read-out and setting: under `COC(=O)N1CCC(c2cc(NC(=O)c3cnn4cccnc34)n(-c3ccc(OC)cc3)n2)CC1` [Example 32, methyl 4-(1-(4-methoxyphenyl)-5-(pyrazolo[1,5-a]pyrimidine-3-carboxamido)-1H-pyrazol-3-yl)piperidine-1-carboxylate] stands less than 1 µM; under `COc1ccc(-n2nc(C3CCN(C(=O)C4CC4)CC3)cc2NC(=O)c2cnn3cccnc23)cc1` [Example 33, N-(3-(1-(cyclopropanecarbonyl)piperidin-4-yl)-1-(4-methoxyphenyl)-1H-pyrazol-5-yl)pyrazolo[1,5-a]pyrimidine-3-carboxamide], less than 1 µM.

The values are drawn from patent publication US9169260B2 (MERCK SHARP & DOHME CORP., priority 2011, dated 2015).
